This note sets out measurements from patent publication US20180188338A1, “Nuclear Spin Polarization Enhancing Method Through Dynamic Nuclear Polarization by Using Soluble Pentacene” (RIKEN, priority 2015, published 2018).

The data set is described as follows: confirmation of dissolution of the pentacene derivative in the solvent. It counts as physicochemical. How it is done:
Herein, all samples are compositions containing no test compound and including the pentacene derivative and/or the salt thereof and the solvent.
6,13-Diphenylpentacene (0.4 mg, produced by Sigma-Aldrich Co., Ltd.) represented by the following formula was prepared as the pentacene derivative represented by formula (A), and dissolved in a mixed liquid of water and deuterated ethanol (2 mL, pure water:ethanol=1:9% by mass) as the solvent, thereby preparing a sample.
6,13-Diphenylpentacene (0.5 mg) represented by the above formula, as the pentacene derivative represented by formula (A), was dissolved in a mixed liquid of benzene and polystyrene (1 mL, benzene:polystyrene=5:5% by mass) as the solvent, thereby preparing a sample.
6,13-Diphenylpentacene (0.5 mg) represented by the above formula, as the pentacene derivative represented by formula (A), was dissolved in a mixed liquid of benzene and deuterated toluene (1 mL, benzene:deuterated toluene=1:9% by mass) as the solvent, thereby preparing a sample.
6,13-Dibiphenylpentacene (0.4 mg, produced by Luminescence Technology Crop.) represented by the following formula, as the pentacene derivative represented by formula (A), was dissolved in a mixed liquid of benzene and deuterated toluene (2 mL, benzene:deuterated toluene=1:9% by mass) as the solvent, thereby preparing a sample.
6,13-Bis[(triethylsilyl)ethynyl]pentacene (0.4 mg, produced by Sigma-Aldrich Co., Ltd.) represented by the following formula, as the pentacene derivative represented by formula (A), was dissolved in a mixed liquid of benzene and polystyrene (2 mL, benzene:polystyrene=5:5% by mass) as the solvent, thereby preparing a sample.
6,13-Bis[(triisopropylsilyl)ethynyl]pentacene (0.4 mg, produced by Tokyo Chemical Industry Co., Ltd.) represented by the following formula, as the pentacene derivative represented by formula (A), was dissolved in a mixed liquid of benzene and polystyrene (2 mL, benzene:polystyrene=5:5% by mass) as the solvent, thereby preparing a sample.
Pentacene (0.4 mg, produced by Sigma-Aldrich Co., Ltd.) represented by the following formula, and a mixed liquid of benzene and deuterated toluene (2 mL, benzene:deuterated toluene=1:9% by mass) as the solvent were mixed, thereby preparing a composition for NMR measurement.

Where [1] appears, read: 0.4 mg in 2 mL mixed liquid of benzene and polystyrene (5:5 by mass).
Where [2] appears, read: 0.4 mg in 2 mL mixed liquid of benzene and deuterated toluene (1:9 by mass).

`CC[Si](C#Cc1c2cc3ccccc3cc2c(C#C[Si](CC)(CC)CC)c2cc3ccccc3cc12)(CC)CC` [6,13-bis[(triethylsilyl)ethynyl]pentacene]: under setting [1], the “dissolution in the solvent” value is “completely dissolved”.
For the molecule `CC(C)[Si](C#Cc1c2cc3ccccc3cc2c(C#C[Si](C(C)C)(C(C)C)C(C)C)c2cc3ccccc3cc12)(C(C)C)C(C)C` [6,13-bis[(triisopropylsilyl)ethynyl]pentacene], the “dissolution in the solvent” value under setting [1] is recorded as “completely dissolved”.
As for `c1ccc(-c2ccc(-c3c4cc5ccccc5cc4c(-c4ccc(-c5ccccc5)cc4)c4cc5ccccc5cc34)cc2)cc1` [6,13-dibiphenylpentacene], the “dissolution in the solvent” value under setting [2] is given as “completely dissolved”.
Regarding `c1ccc(-c2c3cc4ccccc4cc3c(-c3ccccc3)c3cc4ccccc4cc23)cc1` [6,13-diphenylpentacene], the “dissolution in the solvent” value is, setting by setting: (0.4 mg in 2 mL mixed liquid of water and deuterated ethanol (1:9 by mass)) “completely dissolved”; (0.5 mg in 1 mL mixed liquid of benzene and deuterated toluene (1:9 by mass)) “completely dissolved”; (0.5 mg in 1 mL mixed liquid of benzene and polystyrene (5:5 by mass)) “completely dissolved”.
With `c1ccc2cc3cc4cc5ccccc5cc4cc3cc2c1` [pentacene, Pentacene], the “dissolution in the solvent” value under setting [2] is recorded as “not almost dissolved”.
